Data: patent US11919888B2, “Neprilysin inhibitors” (THERAVANCE BIOPHARMA R&D IP, LLC, priority 2012, dated 2024)

Target: T1, human NEP (Homo sapiens, UniProt P08473)
T1 construct: purchased R&D Systems, Minneapolis, MN 1182-ZN
Assay: In vitro enzyme inhibition assay at human NEP (fluorogenic peptide substrate)
Format: biochemical
Settings: recombinant human NEP; 10 μM fluorogenic substrate Mca-D-Arg-Arg-Leu-Dap-(Dnp)-OH; 37° C.; 30 minute preincubation; read-out: pKi value at human NEP (converted)
Experimental: In Vitro Assays for the Quantitation of Inhibitor Potencies (IC50) at Human and Rat NEP, and Human ACE
The inhibitory activities of compounds at human and rat neprilysin (EC 3.4.24.11; NEP) and human angiotensin converting enzyme (ACE) were determined using in vitro assays as described below.
Recombinant human NEP and recombinant human ACE were obtained commercially (R&D Systems, Minneapolis, MN, catalog numbers 1182-ZN and 929-ZN, respectively). The fluorogenic peptide substrate Mca-D-Arg-Arg-Leu-Dap-(Dnp)-OH (Medeiros et al. (1997) Braz. J. Med. Biol. Res. 30:1157-62; Anaspec, San Jose, CA) and Abz-Phe-Arg-Lys(Dnp)-Pro-OH (Araujo et al. (2000) Biochemistry 39:8519-8525; Bachem, Torrance, CA) were used in the NEP and ACE assays respectively.
The assays were performed in 384-well white opaque plates at 37° C. using the fluorogenic peptide substrates at a concentration of 10 μM in Assay Buffer (NEP: 50 mM HEPES, pH 7.5, 100 mM NaCl, 0.01% polyethylene glycol sorbitan monolaurate (Tween-20), 10 μM ZnSO4; ACE: 50 mM HEPES, pH 7.5, 100 mM NaCl, 0.01% Tween-20, 1 μM ZnSO4).
Test compounds were assayed over the range of concentrations from 10 μM to 20 pM. Test compounds were added to the enzymes and incubated for 30 minute at 37° C. prior to initiating the reaction by the addition of substrate. Reactions were terminated after 20 minutes of incubation at 37° C. by the addition of glacial acetic acid to a final concentration of 3.6% (v/v).
Plates were read on a fluorometer with excitation and emission wavelengths set to 320 nm and 405 nm, respectively. Inhibition constants were obtained by nonlinear regression of the data using the equation (GraphPad Software, Inc., San Diego, CA): ν=ν0/[1+(I/K′)] where ν is the reaction rate, ν0 is the uninhibited reaction rate, I is the inhibitor concentration and K′ is the apparent inhibition constant.

T1 sequence (P08473 52-750 limits assumed): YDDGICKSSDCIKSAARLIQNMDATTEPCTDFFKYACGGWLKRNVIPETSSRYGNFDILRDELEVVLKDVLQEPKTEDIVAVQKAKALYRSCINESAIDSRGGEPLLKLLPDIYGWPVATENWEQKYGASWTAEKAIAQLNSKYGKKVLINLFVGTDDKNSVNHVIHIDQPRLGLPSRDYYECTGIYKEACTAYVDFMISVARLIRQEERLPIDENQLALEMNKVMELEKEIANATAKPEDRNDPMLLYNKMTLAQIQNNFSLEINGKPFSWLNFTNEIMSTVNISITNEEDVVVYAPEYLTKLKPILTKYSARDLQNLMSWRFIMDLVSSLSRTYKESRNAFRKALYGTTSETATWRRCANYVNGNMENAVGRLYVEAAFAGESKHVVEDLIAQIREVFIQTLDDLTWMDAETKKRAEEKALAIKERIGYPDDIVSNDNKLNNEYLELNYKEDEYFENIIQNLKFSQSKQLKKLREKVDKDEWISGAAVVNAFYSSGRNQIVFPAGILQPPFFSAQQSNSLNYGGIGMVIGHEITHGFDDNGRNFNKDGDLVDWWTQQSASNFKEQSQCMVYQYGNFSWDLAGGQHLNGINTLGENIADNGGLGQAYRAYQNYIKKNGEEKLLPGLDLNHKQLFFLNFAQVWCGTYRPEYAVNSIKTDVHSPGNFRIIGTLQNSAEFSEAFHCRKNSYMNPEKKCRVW

Ki [nM]	Structure (SMILES)
≤ 1	C[C@@](CO)(C[C@@H](Cc1ccc(-c2ccccc2)cc1)NC(=O)c1cnn[nH]1)C(=O)O [(2S,4R)-5-biphenyl-4-yl-2-hydroxymethyl-2-methyl-4-[(3H-[1,2,3]triazole-4-carbonyl)amino]-pentanoic acid, reference compound]
≤ 1	CC(C)C(=O)OC[C@](C)(C[C@@H](Cc1ccc(-c2ccccc2)cc1)NC(=O)c1cnn[nH]1)C(=O)O [Example 1E, (2S,4R)-5-Biphenyl-4-yl-2-isobutyryloxymethyl-2-methyl-4-[(3H-[1,2,3]triazole-4-carbonyl)amino]pentanoic Acid]
≤ 1	CC(C)CC(=O)OC[C@](C)(C[C@@H](Cc1ccc(-c2ccccc2)cc1)NC(=O)c1cnn[nH]1)C(=O)O [Example 1F, (2S,4R)-5-Biphenyl-4-yl-2-methyl-2-(3-methylbutyryloxymethyl)-4-[(3H-[1,2,3]triazole-4-carbonyl)amino]pentanoic Acid]
1 to 3.16	CCOC[C@](C)(C[C@@H](Cc1ccc(-c2ccccc2)cc1)NC(=O)c1c[nH]nn1)C(=O)O [Example 1I, (2S,4R)-5-Biphenyl-4-yl-2-ethoxymethyl-2-methyl-4-[(1H-[1,2,3]triazole-4-carbonyl)amino]pentanoic Acid]
1 to 3.16	COC[C@](C)(C[C@@H](Cc1ccc(-c2ccccc2)cc1)NC(=O)c1c[nH]nn1)C(=O)O [Example 1J, (2S,4R)-5-Biphenyl-4-yl-2-methoxymethyl-2-methyl-4-[(1H-[1,2,3]triazole-4-carbonyl)amino]pentanoic Acid]
1 to 3.16	COc1ccccc1-c1ccc(C[C@H](C[C@@](C)(CO)C(=O)O)NC(=O)c2c[nH]nn2)cc1 [Example 2A, (2S,4R)-2-Hydroxymethyl-5-(2′-methoxybiphenyl-4-yl)-2-methyl-4-[(1H-[1,2,3]triazole-4-carbonyl)amino]pentanoic Acid]
≤ 1	C[C@@](CO)(C[C@@H](Cc1ccc(-c2ccccc2Cl)cc1)NC(=O)c1c[nH]nn1)C(=O)O [Example 2B, (2S,4R)-5-(2′-Chlorobiphenyl-4-yl)-2-hydroxymethyl-2-methyl-4-[(1H-[1,2,3]triazole-4-carbonyl)amino]pentanoic Acid]
≤ 1	Cc1ccccc1-c1ccc(C[C@H](C[C@@](C)(CO)C(=O)O)NC(=O)c2c[nH]nn2)cc1 [Example 2C, (2S,4R)-2-Hydroxymethyl-2-methyl-5-(2′-methylbiphenyl-4-yl)-4-[(1H-[1,2,3]triazole-4-carbonyl)amino]pentanoic Acid]
≤ 1	C[C@@](CO)(C[C@@H](Cc1ccc(-c2cccc(Cl)c2)cc1)NC(=O)c1c[nH]nn1)C(=O)O [Example 2D, (2S,4R)-5-(3′-Chlorobiphenyl-4-yl)-2-hydroxymethyl-2-methyl-4-[(1H-[1,2,3]triazole-4-carbonyl)amino]pentanoic Acid]
1 to 3.16	C[C@@](CO)(C[C@@H](Cc1ccc(-c2cc(Cl)ccc2F)cc1)NC(=O)c1c[nH]nn1)C(=O)O [Example 2E, (2S,4R)-5-(5′-Chloro-2′-fluorobiphenyl-4-yl)-2-hydroxymethyl-2-methyl-4-[(1H-[1,2,3]triazole-4-carbonyl)amino]pentanoic Acid]
≤ 1	C[C@@](CO)(C[C@@H](Cc1ccc(-c2cc(Cl)ccc2Cl)cc1)NC(=O)c1c[nH]nn1)C(=O)O [Example 2F, (2S,4R)-5-(2′,5′-Dichlorobiphenyl-4-yl)-2-hydroxymethyl-2-methyl-4-[(1H-[1,2,3]triazole-4-carbonyl)amino]pentanoic Acid]
≤ 1	Cc1ccc(Cl)cc1-c1ccc(C[C@H](C[C@@](C)(CO)C(=O)O)NC(=O)c2c[nH]nn2)cc1 [Example 2G, (2S,4R)-5-(5′-Chloro-2′-methylbiphenyl-4-yl)-2-hydroxymethyl-2-methyl-4-[(1H-[1,2,3]triazole-4-carbonyl)amino]pentanoic Acid]
3.16 to 10	C[C@@](CO)(C[C@@H](Cc1ccc(-c2cccc(C#N)c2)cc1)NC(=O)c1c[nH]nn1)C(=O)O [Example 2H, (2S,4R)-5-(3′-Cyanobiphenyl-4-yl)-2-hydroxymethyl-2-methyl-4-[(1H-[1,2,3]triazole-4-carbonyl)amino]pentanoic Acid]
1 to 3.16	COC[C@](C)(C[C@@H](Cc1ccc(-c2cccc(Cl)c2)cc1)NC(=O)c1c[nH]nn1)C(=O)O [Example 2J, (2S,4R)-5-(3′-Chlorobiphenyl-4-yl)-2-methoxymethyl-2-methyl-4-[(1H-[1,2,3]triazole-4-carbonyl)amino]pentanoic Acid]
≤ 1	CCOC[C@](C)(C[C@@H](Cc1ccc(-c2cccc(Cl)c2)cc1)NC(=O)c1cnn[nH]1)C(=O)O [Example 2K, (2S,4R)-5-(3′-Chlorobiphenyl-4-yl)-2-ethoxymethyl-2-methyl-4-[(3H-[1,2,3]triazole-4-carbonyl)amino]pentanoic Acid]
≤ 1	C[C@@](COCCO)(C[C@@H](Cc1ccc(-c2cccc(Cl)c2)cc1)NC(=O)c1c[nH]nn1)C(=O)O [Example 2L, (2S,4R)-5-(3′-Chlorobiphenyl-4-yl)-2-(2-hydroxyethoxymethyl)-2-methyl-4-[(1H-[1,2,3]triazole-4-carbonyl)amino]pentanoic Acid]
≤ 1	C[C@@](COCCCO)(C[C@@H](Cc1ccc(-c2cccc(Cl)c2)cc1)NC(=O)c1c[nH]nn1)C(=O)O [Example 2M, (2S,4R)-5-(3′-Chlorobiphenyl-4-yl)-2-(3-hydroxypropoxymethyl)-2-methyl-4-[(1H-[1,2,3]triazole-4-carbonyl)amino]pentanoic Acid]
≤ 1	COC[C@](C)(C[C@@H](Cc1ccc(-c2cc(Cl)ccc2F)cc1)NC(=O)c1c[nH]nn1)C(=O)O [Example 2N, (2S,4R)-5-(5′-Chloro-2′-fluorobiphenyl-4-yl)-2-methoxymethyl-2-methyl-4-[(1H-[1,2,3]triazole-4-carbonyl)amino]pentanoic Acid]
≤ 1	CCOC[C@](C)(C[C@@H](Cc1ccc(-c2cc(Cl)ccc2F)cc1)NC(=O)c1c[nH]nn1)C(=O)O [Example 2O, (2S,4R)-5-(5′-Chloro-2′-fluoro-biphenyl-4-yl)-2-ethoxymethyl-2-methyl-4-[(1H-[1,2,3]triazole-4-carbonyl)amino]pentanoic Acid]
≤ 1	C[C@@](COCCCO)(C[C@@H](Cc1ccc(-c2cc(Cl)ccc2F)cc1)NC(=O)c1cnn[nH]1)C(=O)O [Example 2P, (2S,4R)-5-(5′-Chloro-2′-fluorobiphenyl-4-yl)-2-(3-hydroxypropoxymethyl)-2-methyl-4-[(3H-[1,2,3]triazole-4-carbonyl)amino]pentanoic Acid]
1 to 3.16	CCCCCOC[C@](C)(C[C@@H](Cc1ccc(-c2cc(Cl)ccc2F)cc1)NC(=O)c1cnn[nH]1)C(=O)O [Example 2Q, (2S,4R)-5-(5′-Chloro-2′-fluorobiphenyl-4-yl)-2-methyl-2-pentyloxymethyl-4-[(3H-[1,2,3]triazole-4-carbonyl)amino]pentanoic Acid]
≤ 1	CC(C)OC[C@](C)(C[C@@H](Cc1ccc(-c2cc(Cl)ccc2F)cc1)NC(=O)c1cnn[nH]1)C(=O)O [Example 2R, (2S,4R)-5-(5′-Chloro-2′-fluorobiphenyl-4-yl)-2-isopropoxymethyl-2-methvl-4-[(3H-[1,2,3]triazole-4-carbonyl)amino]pentanoic Acid]
3.16 to 10	C[C@@](COCCO)(C[C@@H](Cc1ccc(-c2cc(Cl)ccc2F)cc1)NC(=O)c1cnn[nH]1)C(=O)O [Example 2S, (2S,4R)-5-(5′-Chloro-2′-fluorobiphenyl-4-yl)-2-(2-hydroxyethoxymethyl)-2-methyl-4-[(3H-[1,2,3]triazole-4-carbonyl)amino]pentanoic Acid]
≤ 1	COn1cc(C(=O)N[C@H](Cc2ccc(-c3cc(Cl)ccc3F)cc2)C[C@@](C)(CO)C(=O)O)nn1 [Example 4B, (2S,4R)-5-(5′-Chloro-2′-fluorobiphenyl-4-yl)-2-hydroxymethyl-4-[(1-methoxy-1H-[1.2.3]triazole-4-carbonyl)amino]-2-methylpentanoic Acid]
≤ 1	CCOn1cc(C(=O)N[C@H](Cc2ccc(-c3cc(Cl)ccc3F)cc2)C[C@@](C)(CO)C(=O)O)nn1 [Example 4C, (2S,4R)-5-(5′-Chloro-2′-fluorobiphenyl-4-yl)-4-[(1-ethoxy-1H-[1,2,3]triazole-4-carbonyl)-amino]-2-hydroxymethyl-2-methylpentanoic Acid]

Structure (SMILES)	Ki [nM]
CC(=O)OC[C@](C)(C[C@@H](Cc1ccc(-c2ccccc2)cc1)NC(=O)c1cnn[nH]1)C(=O)O [Example 1D, (2S,4R)-2-Acetoxymethyl-5-biphenyl-4-yl-2-methyl-4-[(3H-[1,2,3]triazole-4-carbonyl)amino]pentanoic Acid]	≤ 1
